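Five concentrations, 48 hours, 96-well plates. GI50: concentration for 50% inhibition of growth. TGI is the concentration that stops growth completely.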
Columns and labels:
Assay in all cases: NCI-60 cell line screen, 48 h
A549 NSCLC = system: A549 NSCLC
MCF7 breast = system: MCF7 breast
OVCAR-8 ovarian = system: OVCAR-8 ovarian
SK-MEL-28 melanoma = system: SK-MEL-28 melanoma
PC-3 prostate = system: PC-3 prostate
M14 melanoma = system: M14 melanoma
DU-145 prostate = system: DU-145 prostate
SF-268 CNS = system: SF-268 CNS
OVCAR-3 ovarian = system: OVCAR-3 ovarian
MALME-3M melanoma = system: MALME-3M melanoma
EKVX NSCLC = system: EKVX NSCLC
BT-549 breast = system: BT-549 breast
MOLT-4 leukemia = system: MOLT-4 leukemia
K-562 leukemia = system: K-562 leukemia
MDA-MB-231 breast = system: MDA-MB-231 breast
RXF 393 renal = system: RXF 393 renal
HCT-116 colon = system: HCT-116 colon
SF-295 CNS = system: SF-295 CNS
SK-MEL-5 melanoma = system: SK-MEL-5 melanoma
SN12C renal = system: SN12C renal
786-0 renal = system: 786-0 renal
A498 renal = system: A498 renal
UO-31 renal = system: UO-31 renal
MDA-MB-468 breast = system: MDA-MB-468 breast
LOX IMVI melanoma = system: LOX IMVI melanoma
SK-OV-3 ovarian = system: SK-OV-3 ovarian
OVCAR-4 ovarian = system: OVCAR-4 ovarian
MDA-MB-435 = system: MDA-MB-435
NCI-H522 lung = system: NCI-H522 lung
UACC-257 melanoma = system: UACC-257 melanoma
HT29 colon = system: HT29 colon
NCI-H23 lung = system: NCI-H23 lung
HS 578T breast = system: HS 578T breast
IGROV1 ovarian = system: IGROV1 ovarian
HOP-62 NSCLC = system: HOP-62 NSCLC
KM12 colon = system: KM12 colon
NCI/ADR-RES ovarian = system: NCI/ADR-RES ovarian
HCC-2998 colon = system: HCC-2998 colon
CCRF-CEM leukemia = system: CCRF-CEM leukemia
SNB-19 CNS = system: SNB-19 CNS
SF-539 CNS = system: SF-539 CNS
HOP-92 NSCLC = system: HOP-92 NSCLC
HL-60(TB) leukemia = system: HL-60(TB) leukemia
U251 CNS = system: U251 CNS
OVCAR-5 ovarian = system: OVCAR-5 ovarian
ACHN renal = system: ACHN renal
T-47D breast = system: T-47D breast
UACC-62 melanoma = system: UACC-62 melanoma
RPMI-8226 leukemia = system: RPMI-8226 leukemia
NCI-H226 lung = system: NCI-H226 lung
SR leukemia = system: SR leukemia
HCT-15 colon = system: HCT-15 colon
NCI-H460 lung = system: NCI-H460 lung
SW-620 colon = system: SW-620 colon
SK-MEL-2 melanoma = system: SK-MEL-2 melanoma
COLO 205 colon = system: COLO 205 colon
CAKI-1 renal = system: CAKI-1 renal
SNB-75 CNS = system: SNB-75 CNS
TK-10 renal = system: TK-10 renal

SMILES: CS(=O)(=O)Nc1cc(-c2ccc3ncnc(Nc4ccc(OCc5cccnc5)c(Cl)c4)c3c2)cnc1Cl
- GI50 (A549 NSCLC): 7.76 µM
- TGI (A549 NSCLC): 25.1 µM
- GI50 (MCF7 breast): 0.41 µM
- TGI (MCF7 breast): 8.33 µM
- GI50 (OVCAR-8 ovarian): 2.56 µM
- TGI (OVCAR-8 ovarian): 20.5 µM
- GI50 (SK-MEL-28 melanoma): 0.652 µM
- TGI (SK-MEL-28 melanoma): 8.64 µM
- GI50 (PC-3 prostate): 1.66 µM
- TGI (PC-3 prostate): 14.3 µM
- GI50 (M14 melanoma): 1.51 µM
- TGI (M14 melanoma): 13.8 µM
- GI50 (DU-145 prostate): 2.74 µM
- TGI (DU-145 prostate): 21.5 µM
- GI50 (SF-268 CNS): 0.835 µM
- TGI (SF-268 CNS): 10.4 µM
- GI50 (OVCAR-3 ovarian): 0.7 µM
- TGI (OVCAR-3 ovarian): 3.48 µM
- GI50 (MALME-3M melanoma): 0.271 µM
- TGI (MALME-3M melanoma): 2.13 µM
- GI50 (EKVX NSCLC): 0.97 µM
- TGI (EKVX NSCLC): 6.25 µM
- GI50 (BT-549 breast): 0.379 µM
- TGI (BT-549 breast): 2.22 µM
- GI50 (MOLT-4 leukemia): 0.465 µM
- TGI (MOLT-4 leukemia): 4.91 µM
- GI50 (K-562 leukemia): 1.85 µM
- TGI (K-562 leukemia): 32.4 µM
- GI50 (MDA-MB-231 breast): 0.96 µM
- TGI (MDA-MB-231 breast): 3.05 µM
- GI50 (RXF 393 renal): 0.367 µM
- TGI (RXF 393 renal): 2.44 µM
- GI50 (HCT-116 colon): 1.69 µM
- TGI (HCT-116 colon): 4.55 µM
- GI50 (SF-295 CNS): 2.37 µM
- TGI (SF-295 CNS): 12.1 µM
- GI50 (SK-MEL-5 melanoma): 0.617 µM
- TGI (SK-MEL-5 melanoma): 1.93 µM
- GI50 (SN12C renal): 0.904 µM
- TGI (SN12C renal): 11.3 µM
- GI50 (786-0 renal): 1.81 µM
- TGI (786-0 renal): 11.1 µM
- GI50 (A498 renal): 1.84 µM
- TGI (A498 renal): 6.49 µM
- GI50 (UO-31 renal): 1.68 µM
- TGI (UO-31 renal): 20.3 µM
- GI50 (MDA-MB-468 breast): 0.208 µM
- TGI (MDA-MB-468 breast): 0.962 µM
- GI50 (LOX IMVI melanoma): 0.792 µM
- TGI (LOX IMVI melanoma): 2.73 µM
- GI50 (SK-OV-3 ovarian): 1.49 µM
- TGI (SK-OV-3 ovarian): 7.14 µM
- GI50 (OVCAR-4 ovarian): 4.91 µM
- TGI (OVCAR-4 ovarian): 90.4 µM
- GI50 (MDA-MB-435): 1.16 µM
- TGI (MDA-MB-435): 9.24 µM
- GI50 (NCI-H522 lung): 0.641 µM
- TGI (NCI-H522 lung): 4.39 µM
- GI50 (UACC-257 melanoma): 1.62 µM
- TGI (UACC-257 melanoma): 12.6 µM
- GI50 (HT29 colon): 1.95 µM
- TGI (HT29 colon): 13.2 µM
- GI50 (NCI-H23 lung): 1.37 µM
- TGI (NCI-H23 lung): 5.33 µM
- GI50 (HS 578T breast): 0.196 µM
- TGI (HS 578T breast): 1.7 µM
- GI50 (IGROV1 ovarian): 0.231 µM
- TGI (IGROV1 ovarian): 1.09 µM
- GI50 (HOP-62 NSCLC): 1.56 µM
- TGI (HOP-62 NSCLC): 40.9 µM
- GI50 (KM12 colon): 3.82 µM
- TGI (KM12 colon): 15.2 µM
- GI50 (NCI/ADR-RES ovarian): 32.7 µM
- TGI (NCI/ADR-RES ovarian): > 100 µM
- GI50 (HCC-2998 colon): 1.59 µM
- TGI (HCC-2998 colon): 5.22 µM
- GI50 (CCRF-CEM leukemia): 0.801 µM
- TGI (CCRF-CEM leukemia): > 37.9 µM
- GI50 (SNB-19 CNS): 1.15 µM
- TGI (SNB-19 CNS): 9.24 µM
- GI50 (SF-539 CNS): 0.852 µM
- TGI (SF-539 CNS): 3.5 µM
- GI50 (HOP-92 NSCLC): 0.183 µM
- TGI (HOP-92 NSCLC): 1.97 µM
- GI50 (HL-60(TB) leukemia): 0.335 µM
- TGI (HL-60(TB) leukemia): 10.3 µM
- GI50 (U251 CNS): 0.917 µM
- TGI (U251 CNS): 4.65 µM
- GI50 (OVCAR-5 ovarian): 2.24 µM
- TGI (OVCAR-5 ovarian): 18 µM
- GI50 (ACHN renal): 4.45 µM
- TGI (ACHN renal): > 48.8 µM
- GI50 (T-47D breast): 0.15 µM
- TGI (T-47D breast): 1.47 µM
- GI50 (UACC-62 melanoma): 0.419 µM
- TGI (UACC-62 melanoma): 2.32 µM
- GI50 (RPMI-8226 leukemia): 2.05 µM
- TGI (RPMI-8226 leukemia): 6.8 µM
- GI50 (NCI-H226 lung): 1.43 µM
- TGI (NCI-H226 lung): 10.3 µM
- GI50 (SR leukemia): 0.746 µM
- TGI (SR leukemia): > 20.6 µM
- GI50 (HCT-15 colon): 2.84 µM
- TGI (HCT-15 colon): 17 µM
- GI50 (NCI-H460 lung): 3.58 µM
- TGI (NCI-H460 lung): 21.4 µM
- GI50 (SW-620 colon): 1.9 µM
- TGI (SW-620 colon): 10.9 µM
- GI50 (SK-MEL-2 melanoma): 0.901 µM
- TGI (SK-MEL-2 melanoma): 2.7 µM
- GI50 (COLO 205 colon): 1.41 µM
- TGI (COLO 205 colon): 3.59 µM
- GI50 (CAKI-1 renal): 0.935 µM
- TGI (CAKI-1 renal): 6.45 µM
- GI50 (SNB-75 CNS): 0.139 µM
- TGI (SNB-75 CNS): 4.37 µM
- GI50 (TK-10 renal): 0.714 µM
- TGI (TK-10 renal): 5.51 µM

From PubChem BioAssay (NCI)
